Experimental data: patent US20190105367A1, “ANTIMICROBIAL 4-OXOQUINOLIZINES” (Emergent Product Development Gaithersburg Inc., priority 2011, published 2019)
Converted amounts (≈) assume the structure as drawn. Like-named read-outs stand apart in the source and are kept apart here.

Experiments:
E. faecalis 29212 = experiment: MIC, standard panel of Gram-positive and Gram-negative strains (Example 2); type: cell-based, Enterococcus faecalis; conditions: Enterococcus faecalis, 29212, read-out: MIC E. faecalis 29212
E. cloacae 13047 = experiment: as above; type: cell-based, Enterobacter cloacae
A. baumanii 19606 = experiment: as above; type: cell-based; conditions: Acinetobacter baumannii
S. aureus SMITH = experiment: MIC, panel of quinolone-resistant strains (Example 2); type: cell-based; conditions: Staphylococcus aureus, read-out: MIC S. aureus SMITH
S. pneumoniae 49619 = experiment: as above; type: cell-based, Streptococcus pneumoniae; conditions: Streptococcus pneumoniae, 49619, read-out: MIC S. pneumoniae 49619
A. baumannii J2 = experiment: Preliminary MBC without and with sub-inhibitory polymyxin B (Example 4); type: cell-based, Acinetobacter baumannii; conditions: Acinetobacter baumannii
[1] = test system: Acinetobacter sp. (H064200250); experiment: as above; type: cell-based; conditions: Acinetobacter
Procedure: The plates were incubated for 18-20 hours at 37° C. The MBC was read as the lowest concentration at which colony growth was ca. 90% less than the positive control (i.e. usually where single colonies or no colonies were observed).

A. baumannii A329 = experiment: as above; type: cell-based, Acinetobacter baumannii; conditions: Acinetobacter baumannii, A329, A. baumannii A329, +0.06 μg/ml PB, 2nd experiment, read-out: MBC
A. baumannii A489 = experiment: as above; type: cell-based, Acinetobacter baumannii; conditions: Acinetobacter baumannii, preliminary MBC
B. thailandensis = type: cell-based, Burkholderia thailandensis; conditions: pH 7 vs pH 5
Cytotoxicity (Example 7) = type: cell-based; conditions: human, HEPG2 V1 cells
Procedure: The 4-oxoquinolizine compounds of the invention preferably have a low cytotoxicity against human cells. […].
Cytotoxicity was determined for the instant 4-oxoquinolizine compounds which show low cytotoxicity. (see Table 17 following). […]

[2] = J2, read-out: MBC +[…] PB, A. baumannii J2, +[…] polymyxin B, preliminary MBC, 1st experiment
[3] = read-out: MBC +[…] PB, Acinetobacter spp. H064200250, +[…] polymyxin B, preliminary MBC, 1st experiment
[4] = A489, A. baumannii A489, +[…] PB, 2nd experiment, read-out: MBC
[5] = A489, read-out: MBC +[…] PB, A. baumannii A489, +[…] polymyxin B, 1st experiment

| SMILES | MIC (E. faecalis 29212) | MIC (E. cloacae 13047; Enterobacter cloacae, 13047; read-out: MIC E. cloacae 13047) | MIC (A. baumanii 19606) | MIC (S. aureus SMITH) | MIC (S. pneumoniae 49619) | MBC (A. baumannii J2; [2]) | MBC [1] | MBC [1, 3] | MBC (A. baumannii A329) | MBC (A. baumannii A489; [4]) | MBC (A. baumannii A489; [5]) | MBC (A. baumannii J2; J2, A. baumannii J2, +[…] PB, preliminary MBC, 2nd experiment, read-out: MBC) | MBC ([1]; Acinetobacter spp. H064200250 (OXA51), +[…] PB, preliminary MBC, 2nd experiment, read-out: MBC) | Dilutions improvement shift on B. thailandensis MIC90 (between pH 7 and pH 5) (B. thailandensis) | MIC (E. cloacae 13047; Enterobacter cloacae, 13047, read-out: MIC E. cloacae 13047) | MBC (A. baumannii J2; J2) | IC50 (Cytotoxicity (Example 7)) |
| --- | --- | --- | --- | --- | --- | --- | --- | --- | --- | --- | --- | --- | --- | --- | --- | --- | --- |
| Cc1c(-c2ccc(CN)cc2)ccn2c(=O)c(C(=O)O)cc(C3CC3)c12 [Compound 5, 8-(4-aminomethyl-phenyl)-1-cyclopropyl-9-methyl-4-oxo-quinolizine-3-carboxylic acid] | 0.125 µg/mL (≈ 0.359 µM) | 0.06 µg/mL (≈ 0.172 µM) | 0.25 µg/mL (≈ 0.718 µM) | 0.125 µg/mL (≈ 0.359 µM) | 0.125 µg/mL (≈ 0.359 µM) | 0.5 µg/mL (≈ 1.44 µM) | 4 µg/mL (≈ 11.5 µM) | 1 µg/mL (≈ 2.87 µM) | 8 µg/mL (≈ 23 µM) | 0.5 µg/mL (≈ 1.44 µM) | 1 µg/mL (≈ 2.87 µM) |  |  |  |  |  |  |
| NCC[C@H](O)C(=O)N[C@@H]1C[C@H](N)[C@@H](O[C@H]2O[C@H](CN)[C@@H](O)[C@H](O)[C@H]2O)[C@H](O)[C@H]1O[C@H]1O[C@H](CO)[C@@H](O)[C@H](N)[C@H]1O [Amikacin, reference compound] |  |  |  |  |  | 4 µg/mL (≈ 6.83 µM) |  | 64 µg/mL (≈ 109 µM) |  | 64 µg/mL (≈ 109 µM) | 128 µg/mL (≈ 219 µM) | 0.5 µg/mL (≈ 0.854 µM) | 1 µg/mL (≈ 1.71 µM) |  |  |  |  |
| Cc1c(-c2ccc(CN)cc2)c(F)cn2c(=O)c(C(=O)O)cc(C3CC3)c12 [Compound 6, 8-(4-aminomethyl-phenyl)-1-cyclopropyl-7-fluoro-9-methyl-4-oxo-quinolizine-3-carboxylic acid] | 0.125 µg/mL (≈ 0.341 µM) |  | 0.5 µg/mL (≈ 1.36 µM) | 0.125 µg/mL (≈ 0.341 µM) | 0.125 µg/mL (≈ 0.341 µM) | 1 µg/mL (≈ 2.73 µM) | 1 µg/mL (≈ 2.73 µM) | 4 µg/mL (≈ 10.9 µM) | 8 µg/mL (≈ 21.8 µM) | 0.5 µg/mL (≈ 1.36 µM) | 1 µg/mL (≈ 2.73 µM) |  |  | No | 0.125 µg/mL (≈ 0.341 µM) | 0.25 µg/mL (≈ 0.682 µM) |  |
| Cc1c(-c2ccc(N)c(F)c2)ccn2c(=O)c(C(=O)O)cc(C3CC3)c12 [Compound 1, 8-(3-fluoro-4-amino-phenyl)-1-cyclopropyl-9-methyl-4-oxo-quinolizine-3-carboxylic acid] |  |  |  |  |  | ≤ 0.03 µg/mL | ≤ 0.03 µg/mL | 0.25 µg/mL (≈ 0.709 µM) | 2 µg/mL (≈ 5.68 µM) | ≤ 0.03 µg/mL | ≤ 0.03 µg/mL |  |  | Yes, 4x |  |  | 500 µM |
